{"source": "patent US9938587B2", "about": "(priority 2011, dated 2018)", "key": {"[1]": {"system": "fluorescent reporter plasmid DNA", "test": "HCR of plasmids containing etheno lesions induced by CAA", "format": "cell-based, Human", "conditions": "plasmids treated with CAA; lymphoblastoid cell lines", "text": "Dose and cell line dependent inhibition of transcription in plasmids treated with CAA is shown at right."}, "[2]": {"system": "DNA repair reporter vectors", "test": "HCR of DNA repair reporter vectors treated with Cisplatin", "format": "cell-based", "conditions": "reporter vectors treated with Cisplatin before transfection; effect more pronounced in XPA and XPF deficient cells"}, "MGMT": {"biological_target": "T1, MGMT (Homo sapiens, UniProt P16455)", "T1 construct": "expressed in transfected cells; host or cells: TK6 lymphoblastoid cells (MGMT-deficient) complemented with MGMT (TK6+MGMT)", "T1 sequence (P16455 1-207)": "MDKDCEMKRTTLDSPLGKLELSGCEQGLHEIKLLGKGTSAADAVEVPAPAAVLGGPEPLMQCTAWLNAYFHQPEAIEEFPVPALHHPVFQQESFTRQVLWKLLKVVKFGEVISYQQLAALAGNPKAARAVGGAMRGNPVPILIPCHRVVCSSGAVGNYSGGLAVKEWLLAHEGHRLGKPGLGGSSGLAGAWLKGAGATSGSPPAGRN", "test": "O^6Methylguanine HCR (mPlum:T208C reporter), MGMT dependence of signal", "format": "cell-based", "conditions": "TK6+MGMT cells incubated with compound before and after transfection", "protocol": "FIG. 46 is a bar graph showing that the lack of signal is MGMT dependent. BnG stands for O^6-benzylguanine, which inhibits MGMT.\nFIG. 44 is an illustration providing an assay for O^6Methylguanine HCR. An […] in fluorescence is expected when the reporter plasmid containing the mPlum:T208C mutation is treated with an agent that induces O^6MeG.\nFIG. 46 is a bar graph showing that the lack of signal is MGMT dependent. Reporter expression has been normalized to that for TK6. As expected, the highest reporter expression is observed in MGMT deficient cells."}}, "data": [{"compound": "O=CCCl", "note": "[chloroacetaldehyde]", "values": [{"measurement": "fluorescent reporter expression", "setting": "[1]", "result": "dose-dependent decrease in fluorescent reporter expression"}]}, {"compound": "N.N.[Cl][Pt][Cl]", "note": "[Cisplatin]", "values": [{"measurement": "fluorescent reporter expression", "setting": "[2]", "result": "suppresses florescent reporter expression in a dose dependent manner"}]}, {"compound": "Nc1nc(OCc2ccccc2)c2nc[nH]c2n1", "note": "[O^6Benzylguanine, O^6-benzylguanine]", "values": [{"measurement": "reporter expression normalized to TK6", "setting": "MGMT", "result": "elevated reporter expression similar to that of the MGMT deficient TK6 cells"}]}]}
